Assay [1] addresses T1, Or83b receptor (Drosophila melanogaster, UniProt Q9VNB5).
T1 construct: His (from vector pAc5.1/V5-His B) (C); expressed in transfected cells
T1 sequence (Q9VNB5 1-486): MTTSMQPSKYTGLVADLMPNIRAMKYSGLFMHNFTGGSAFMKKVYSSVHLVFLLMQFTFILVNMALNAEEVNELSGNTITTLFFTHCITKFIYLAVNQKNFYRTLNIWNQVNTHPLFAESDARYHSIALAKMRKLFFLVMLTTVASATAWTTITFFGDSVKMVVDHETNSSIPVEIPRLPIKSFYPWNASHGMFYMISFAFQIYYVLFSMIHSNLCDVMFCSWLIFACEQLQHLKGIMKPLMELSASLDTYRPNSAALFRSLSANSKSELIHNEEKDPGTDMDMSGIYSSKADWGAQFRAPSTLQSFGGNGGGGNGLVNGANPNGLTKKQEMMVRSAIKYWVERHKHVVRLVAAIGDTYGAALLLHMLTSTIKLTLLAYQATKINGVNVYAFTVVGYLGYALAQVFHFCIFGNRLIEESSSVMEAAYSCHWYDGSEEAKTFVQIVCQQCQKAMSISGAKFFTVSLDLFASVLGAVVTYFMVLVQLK
Description: cAMP production in Schneider cells expressing Or83b receptor. The format is cell-based. As to the method: (§1) Cells are grown on dishes and the media changed the day before the treatment. When cells are approximately 95% confluent, media is aspirated and the cells are washed one time with about 5 mL of about 27° C. insect saline (170 mM NaCl, 6.0 mM KCl, 2.0 mM NaHCO3, 17.0 mM glucose, 6.0 mM NaH2PO4, 2.0 mM CaCl2, 4.0 mM MgCl2; pH 7.0). About 20 mL of insect saline is added, and cells are harvested by gentle scraping. An aliquot of the cells is counted by hemocytometer, and the cells are then centrifuged for about 5 minutes at about 1000 RPM. Cells are resuspended to give about 3×10^6 cells per mL. IBMX is added to about 200 μM. Then about 1 mL of cell suspension is aliquoted for treatment. Forskolin (cAMP inducing agent), tyramine or different composition candidates are added, and the cells are incubated at about 27° C. for about 10 minutes.
(§2) Treated cells are centrifuged at about 13000 g for about 10 seconds. The solution is aspirated and about 1 mL of about −20° C. 70% ethanol is added. The cell pellet is disrupted by vortexing and the samples placed at about −20° C. overnight. Following the ethanol extraction, cellular debris is pelleted by centrifugation at about 13000 g for about 5 minutes. The supernatant is transferred to a tube and lyophilized to dryness in a rotary speed-vac. The resulting extract is resuspended in about 100 μL TE and used for the cAMP assay.
The cAMP assay is based on competition binding between endogenous cAMP and ^3H-cAMP to a cAMP binding protein. The ^3H-cAMP Biotrak system (Amersham Biosciences) is used for this assay as per the manufacturer's instructions. Briefly, about 50 μL of the cellular extract is incubated with about 50 μL ^3H-cAMP and about 100 μL cAMP binding protein in an ice bath for about 2-4 hours. Charcoal (about 100 μL) is then added and the solution centrifuged for about 3 minutes at about 4° C. About 200 μL of the reaction mixture is removed and levels of ^3H-cAMP are determined by scintillation counting. Levels of endogenous cAMP from the cells are calculated using a standard curve with cold cAMP ranging from about 0 to 16 pmol per reaction.
To ensure that the cAMP cascade in this cell model is functionally active, forskolin, a cAMP inducer, is used as standard agent. Cyclic-AMP levels are measured using the cAMP assay described above in Example 2. […]
To determine the effect of various plant essential oils on intracellular cAMP production and the tyramine-dependent changes of cAMP in cells expressing one of the olfactory receptors, cells from each cell model are treated with LFO (about 50 μg/ml) and BSO (about 50 μg/ml) in the presence and absence of tyramine (about 20 μM) and forskolin (about 10 μM) and intracellular cAMP is thereafter quantified using the cAMP assay described above in Example 2.
Background: cAMP levels reflect the balance of adenylyl cyclase and phosphodiesterase activity.

For assay [2], the target named is T2, Or43a receptor (Drosophila melanogaster, UniProt P81917, L154V).
T2 construct: His (from vector pAc5.1/V5-His B) (C); expressed in transfected cells
Description: cAMP production in Schneider cells expressing Or43a receptor. The conditions noted are these: agent alone; tyramine about 20 μM, LFO, BSO about 50 μg/ml, forskolin about 10 μM. Type of assay: cell-based. As to the method: Cells are grown on dishes and the media changed the day before the treatment. […] About 20 mL of insect saline is added, and cells are harvested by gentle scraping. An aliquot of the cells is counted by hemocytometer, and the cells are then centrifuged for about 5 minutes at about 1000 RPM. Cells are resuspended to give about 3×10^6 cells per mL. IBMX is added to about 200 μM. Then about 1 mL of cell suspension is aliquoted for treatment. Forskolin (cAMP inducing agent), tyramine or different composition candidates are added, and the cells are incubated at about 27° C. for about 10 minutes.
as §2
The cAMP assay is based on competition binding between endogenous cAMP and ^3H-cAMP to a cAMP binding protein. The ^3H-cAMP Biotrak system (Amersham Biosciences) is used for this assay as per the manufacturer's instructions. Briefly, about 50 μL of the cellular extract is incubated with about 50 μL ^3H-cAMP and about 100 μL cAMP binding protein in an ice bath for about 2-4 hours. Charcoal (about 100 μL) is then added and the solution centrifuged for about 3 minutes at about 4° C. About 200 μL of the reaction mixture is removed and levels of ^3H-cAMP are determined by scintillation counting.
As such, the cells expressing olfactory receptors have a functionally active cAMP cascade.

The target in the next assay is T3, tyramine receptor (TyrR) (Drosophila melanogaster, UniProt P22270).
T3 sequence (P22270 27-601): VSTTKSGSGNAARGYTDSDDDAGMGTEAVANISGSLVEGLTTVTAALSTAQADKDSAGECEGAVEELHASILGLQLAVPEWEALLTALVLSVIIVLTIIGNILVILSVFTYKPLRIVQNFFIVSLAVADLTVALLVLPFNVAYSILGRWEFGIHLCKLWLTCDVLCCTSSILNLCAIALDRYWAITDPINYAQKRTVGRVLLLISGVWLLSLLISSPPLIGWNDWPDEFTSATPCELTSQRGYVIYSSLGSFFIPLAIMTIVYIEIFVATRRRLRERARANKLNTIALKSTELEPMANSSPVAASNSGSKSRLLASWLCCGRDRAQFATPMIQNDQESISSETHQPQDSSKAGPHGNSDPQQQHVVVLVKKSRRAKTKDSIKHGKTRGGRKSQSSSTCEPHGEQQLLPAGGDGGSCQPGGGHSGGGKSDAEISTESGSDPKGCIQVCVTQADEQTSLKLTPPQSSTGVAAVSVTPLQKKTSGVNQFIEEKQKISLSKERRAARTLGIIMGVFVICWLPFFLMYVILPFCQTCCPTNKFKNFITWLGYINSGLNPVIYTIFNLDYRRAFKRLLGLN
Description: cAMP levels in Schneider cells expressing tyramine receptor. Type of assay: cell-based. Set-up: oligonucleotides that are used to amplify the open reading frame of the Drosophila tyramine receptor (TyrR); expressed in transfected cells. Conditions: forskolin about 10 μM, transfected cells, vs solvent (ethanol). As to the method:
as §1
Treated cells are centrifuged at about 13000 g for about 10 seconds. The solution is aspirated and about 1 mL of about −20° C. 70% ethanol is added. The cell pellet is disrupted by vortexing and the samples placed at about −20° C. overnight. Following the ethanol extraction, cellular debris is pelleted by centrifugation at about 13000 g for about 5 minutes. The supernatant is transferred to a tube and lyophilized to dryness in a rotary speed-vac. […]
The cAMP assay is based on competition binding between endogenous cAMP and ^3H-cAMP to a cAMP binding protein. […] About 200 μL of the reaction mixture is removed and levels of ^3H-cAMP are determined by scintillation counting. Levels of endogenous cAMP from the cells are calculated using a standard curve with cold cAMP ranging from about 0 to 16 pmol per reaction.
To examine test chemical-dependent coupling of the tyramine receptor, pAcB-TyrR is stably expressed in Schneider cells. Transfected and untransfected cells are treated with tyramine (about 10 μM), LFO (about 25 μg/ml) and BSO (about 25 μg/ml) in the presence and absence of forskolin (FK) (about 10 μM). cAMP production is measured using the ^3H-cAMP assay kit (Amersham) as described above.

Another assay relates to control Schneider cells. In words: Intracellular Ca2+ mobilization in control Schneider cells. Type of assay: cell-based, Drosophila. The conditions noted are these: FIG. 22. The method, then: (§3) Intracellular calcium ion concentrations ([Ca^2+]i) are measured by using the acetoxymethyl (AM) ester of the fluorescent indicator fura-2 (Enan, et al., Biochem. Pharmacol vol 51, 447-454). In this study, cells expressing tyramine receptor are grown under standard conditions. A cell suspension is prepared in assay buffer (140 mM NaCL, 10 mM HEPES, 10 mM glucose, 5 mM KCl, 1 mM CaCl2, 1 mM MgCl2) and cell number adjusted to about 2×10^6 cells per ml. Briefly, about 1.0 ml cell suspension (about 2×10^6 cells) is incubated with about 5 μM Fura 2/AM for about 30 min at about 28° C. After incubation, the cells are pelleted at about 3700 rpm for about 10 sec at room temperature and then resuspended in about 1.5 ml assay buffer. [Ca^2+]i changes are analyzed in spectrofluorometer in the presence and absence of test chemicals. Excitation wave lengths are about 340 nm (generated by Ca^2+-bound fura-2) and about 380 nm (corresponding to Ca^2+-free fura-2). The fluorescence intensity is monitored at an emission wave length of about 510 nm. No absorbance of fluorescence artifacts are observed with any of the compounds used. The ratio of about 340/380 nm is calculated and plotted as a function of time.
(§4) Changes in intracellular Ca^2+ levels are calculated based on the difference between the 340/380 fluorescence ratios before and after approximately 150 seconds of the treatment.
On the technique in general: Calcium assays in cells follow changes in intracellular calcium, usually with a dye or a luminescent sensor.

The target in assay [3] is T2, Or43a receptor. In words: Intracellular Ca^2+ mobilization in Schneider cells expressing Or43a receptor. Type of assay: cell-based. The method, then: as §3
(§5) Intracellular Ca^2+ levels are measured using the method described above in Example 3.
as §4

Assay [4] has as its target T1, Or83b receptor. Description: Intracellular Ca^2+ mobilization in Schneider cells expressing Or83b receptor. Type of assay: cell-based. Conditions: ionomycin about 2 μM, tyramine about 10 μM. As to the method: as §3, §5
The subject of assay [5] is Drosophila melanogaster tyramine receptor (TyrR), SEQ ID NO: 2. Description: Receptor-specific binding of 3H-tyramine in Schneider cells transfected with TyrR. The conditions noted are these: whole cells, FIG. 1. An excerpt:
Tyramine receptor is amplified from Drosophila melanogaster head cDNA phage library GH that is obtained through the Berkeley Drosophila Genome Project (Baumann, A., 1999, Drosophila melanogaster mRNA for octopamine receptor, splice variant 1B NCBI direct submission, Accession AJ007617). The nucleic acid sequence and the peptide sequence of TyrR are set forth in SEQ ID NO: 1 and SEQ ID NO: 2, respectively. Phage DNA is purified from this library using a liquid culture lysate. (Baxter, et al., 1999, Insect Biochem Mol Biol 29, 461-467). Briefly, oligonucleotides that are used to amplify the open reading frame of the Drosophila tyramine receptor (TyrR) (Han, et al., 1998, J Neurosci 18, 3650-3658; von Nickisch-Rosenegk, et al., 1996. Insect Biochem Mol Biol 26, 817-827) consist of the 5′ oligonucleotide: 5′[…] 3′ (SEQ ID NO: 7) and 3′ oligonucleotide: 5′taatctaga[…] […]
Cells transfected with the tyramine receptor (about 1×10^6 cells/ml) are cultured in each well of a multi-well plate. […] Solubilized cells are transferred into about 4 ml Liquid Scintillation Solution (LSS) and vigorously vortexed for about 30 sec before counting the radioactivity using a Liquid Scintillation β-counter (Beckman, Model LS1801) (LSC).
With reference to FIG. 1, receptor specific binding data is expressed as fmol specific binding per 1×10^6 cells and measured as a function of ^3H-tyramine concentration. […]

The test system of assay [6] is untransfected Schneider cells. In words: Response of untransfected Schneider cells to tyramine. Type of assay: binding, Drosophila. The conditions noted are these: concentration as high as about 100 μM.

The source of these data is patent publication US20080075796A1, “Compositions and Methods for Controlling Insects” (TyraTech, Inc., priority 2003, published 2008).

T2 sequence (P81917 whole entry L154V): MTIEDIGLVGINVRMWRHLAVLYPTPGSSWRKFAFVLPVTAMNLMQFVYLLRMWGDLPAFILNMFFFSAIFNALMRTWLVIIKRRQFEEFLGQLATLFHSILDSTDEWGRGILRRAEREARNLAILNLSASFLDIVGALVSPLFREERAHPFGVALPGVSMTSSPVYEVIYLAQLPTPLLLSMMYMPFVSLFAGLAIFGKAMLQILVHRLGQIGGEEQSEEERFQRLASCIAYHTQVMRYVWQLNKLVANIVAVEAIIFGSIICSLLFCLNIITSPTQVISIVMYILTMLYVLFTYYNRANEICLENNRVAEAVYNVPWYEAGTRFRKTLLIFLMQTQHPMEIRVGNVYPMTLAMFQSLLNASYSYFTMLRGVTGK

Take `C=C[C@@]1(C)CC(=O)[C@]2(O)[C@@]3(C)[C@@H](O)CCC(C)(C)[C@@H]3[C@H](O)[C@H](OC(C)=O)[C@@]2(C)O1` [forskolin]: the “increase in the production of cAMP” value on Or83b receptor [1] (forskolin about 10 μM (Example 11)) is reported as roughly 3000 fold. The “increase from basal cAMP levels” value on Or83b receptor [1] (forskolin about 10 μM, about 10 min, room temperature) is recorded as roughly 13 fold. Moreover, the “change in cAMP levels” value on Or43a receptor [2] is given as “increase in cAMP levels”. Also, the “increase in cAMP levels over basal level” value at tyramine receptor (TyrR) was roughly 19 fold.

With `C[C@H](CCC(=O)O)C[C@H](C)C[C@H](C)C(=O)/C=C(\O)[C@H](C)C[C@H](C)C/C=C/[C@@H](C)[C@@H](O)[C@@H](C)[C@@H](O)C[C@@H]1CC[C@@](C)([C@H]2CC[C@@](C)([C@@H](C)O)O2)O1` [ionomycin], the “mobilization of Ca2+ in control cells” value in the assay on control Schneider cells is reported as “induce mobilization of Ca^2+”.

Regarding `C[C@H](CCC(=O)O)C[C@H](C)C[C@H](C)C(=O)/C=C(\O)[C@H](C)C[C@H](C)C/C=C/[C@@H](C)[C@@H](O)[C@@H](C)[C@@H](O)C[C@@H]1CC[C@@](C)([C@H]2CC[C@@](C)([C@@H](C)O)O2)O1` [ionomycin, reference compound], the “change in intracellular Ca^2+ levels (340/380 fluorescence ratio)” value on Or43a receptor [3] (before vs approximately 150 seconds after treatment) was “only negligibly”. For the same molecule, the “increase in intracellular calcium” value is given as roughly 7 fold on Or43a receptor [3] (ionomycin about 2 μM, tyramine about 10 μM) and “Approximately 3.8 fold” on Or83b receptor [4].

Consider `NCCc1ccc(O)cc1` [Tyramine, tyramine], for which the “3H-tyramine concentration at which maximum specific binding occurs” value in assay [5] was “about 5 nM”. Moreover, the “response of untransfected cells” value in assay [6] is “do not respond”. For the same molecule, the “mobilization of Ca2+ in control cells” value with control Schneider cells is “induce mobilization of Ca^2+”.
